{
  "source": "patent US8143212B2",
  "about": "(Vicuron Pharmaceuticals Inc., priority 2002, dated 2012)",
  "key": {"[1]": {"test_system": "S. aureus", "test": "Murine thigh-infection model (time kill, dosing regimen, PK/PD; Tables 31, 32);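 on all read-outs here: mouse thigh infection, bacterial counts per thigh after therapy, dose-response curves fitted with a maximum effect model to give static and 1 or 2 log kill exposures, mean of 4 thighs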", "procedure": "The murine thigh-infection model was used for all organisms throughout the various studies. In this well-established model, approximately 10^6 Cfu of the study organisms are injected into one or both thighs (in 0.1 ml) two hours before starting therapy. The number of organisms in the thigh at the start of therapy in the following studies varied from 10^7.15-7.59 cfu/thigh.\nEach point represents the mean of 4 thighs. Five dose levels, ranging 16-fold were used. The dose levels used in the study against S. aureus ranged from 5 to 80 mg/kg.\nIn these studies, multiple dosing regimens varying the dose and dosage interval were administered intraperitoneally in 0.2 ml volumes to groups of mice for 144 h (6 days). The dosing intervals chosen were 12, 24, 36, and 72 hours. Five different doses (two-fold increases) were used. Study against S. aureus utilized total dose (mg/kg/6d) levels ranging from 30 to 480 mg/kg/6d. […] Each point represents the mean of 4 thighs.\nEach of the dose-response curves was also mathematically characterized using a maximum effect model. […] From these parameters we could then calculate the dose required to produce a net bacteriostatic effect over the 144 hour treatment period as well as the doses necessary to produce a 1 and 2 log-reduction in organism burden.\nWe determined which PK/PD parameter correlated best with efficacy by relating the number of bacteria in thigh at the end of 144 hours of therapy with [1] the peak/MIC ratio, [2] the AUC/MIC ratio, and [3] the percentage of the dosing interval that serum levels exceed the MIC for each of the dosage regimens studied. The PK/PD parameter values for those doses not specifically studied were extrapolated from the values of the nearest studied doses. […] Each point represents the mean of four thighs. […] The data illustrated in these figures were also analyzed by the same maximum dose-response model mentioned above, except that the different PK/PD parameters were used in place of the dose. The R^2 represents the coefficient of determination observed for the relationship between efficacy and each PK/PD parameter."}, "[2]": {"test_system": "Gram-positive pathogen", "test": "Phase II SSTI trial: microbiological response", "type": "in vivo, human", "conditions": "for Success Rate by Pathogen: Microbiologically ITT Population at FU; for eradication/presumed eradication rate, all organisms: FU assessment", "experimental": "There were 62 patients randomized into the study; all received at least one dose of study medication. Four study populations were evaluated for safety and efficacy and were defined as follows: The intent-to-treat (ITT) population included all patients who received at least one dose of study drug (all randomized study subjects).\nMicrobiological outcome, a secondary efficacy variable, was assessed in the subpopulation of patients who had microbiologically documented SSTI (i.e., at least one identified baseline pathogen). A microbiologic response was assessed for each Gram-positive pathogen identified at baseline (i.e., eradication, presumed eradication, persistence, presumed persistence). For patients for whom follow-up cultures were not performed, the microbiologic responses for baseline pathogens were presumed on the basis of the clinical response. Microbiologic response by patient at the EOT and FU visits was graded as success (i.e., all Gram-positive organisms eradicated or presumed eradicated) or failure (i.e., at least one Gram-positive organism persisted or presumed to have persisted, multiple pathogens with partial eradication). At both the EOT and FU visits, colonization and superinfection were assessed. At the FU visit, a patient's bacteriological response could also include recurrence."}},
  "data": [
    {"smiles": "CN[C@H]1C(=O)N[C@@H]2Cc3ccc(cc3)Oc3cc4cc(c3O[C@@H]3O[C@H](C(=O)O)[C@@H](O)[C@H](O)[C@H]3NC(=O)CCCCCCCCC(C)C)Oc3ccc(cc3Cl)[C@@H](O)[C@@H]3NC(=O)[C@H](NC(=O)[C@@H]4NC(=O)[C@@H](NC2=O)c2cc(cc(O)c2Cl)Oc2cc1ccc2O)c1ccc(O)c(c1)-c1c(O[C@H]2O[C@H](CO)[C@@H](O)[C@H](O)[C@@H]2O)cc(O)cc1[C@@H](C(=O)NCCCN(C)C)NC3=O", "note": "[Dalbavancin]", "values": [
      {"measurement": "Static Effect mg/kg/72 h", "setting": "[1]; SA31005, q 72 h regimen", "result": 67.7, "unit": "mg/kg/72 h"},
      {"measurement": "1 Log Kill f24AUC/MBC", "setting": "[1]; SA33591, q 24 h regimen", "result": 58.3},
      {"measurement": "1 Log Kill f24AUC/MIC", "setting": "[1]; SA33591, q 24 h regimen", "result": 121},
      {"measurement": "1 Log Kill mg/kg/24 h", "setting": "[1]; SA33591, q 24 h regimen", "result": 27.7, "unit": "mg/kg/24 h"},
      {"measurement": "2 Log Kill f24AUC/MBC", "setting": "[1]; SA33591, q 24 h regimen", "result": 74.3},
      {"measurement": "2 Log Kill f24AUC/MIC", "setting": "[1]; SA33591, q 24 h regimen", "result": 157},
      {"measurement": "2 Log Kill mg/kg/24 h", "setting": "[1]; SA33591, q 24 h regimen", "result": 33.5, "unit": "mg/kg/24 h"},
      {"measurement": "Static Effect f24AUC/MBC", "setting": "[1]; SA33591, q 24 h regimen", "result": 46},
      {"measurement": "Static Effect f24AUC/MIC", "setting": "[1]; SA33591, q 24 h regimen", "result": 96.2},
      {"measurement": "Static Effect mg/kg/24 h", "setting": "[1]; SA33591, q 24 h regimen", "result": 22.3, "unit": "mg/kg/24 h"},
      {"measurement": "1 Log Kill f24AUC/MBC", "setting": "[1]; SA33591, q 72 h regimen", "result": 76.6},
      {"measurement": "1 Log Kill f24AUC/MIC", "setting": "[1]; SA33591, q 72 h regimen", "result": 160},
      {"measurement": "1 Log Kill mg/kg/24 h", "setting": "[1]; SA33591, q 72 h regimen", "result": 93, "unit": "mg/kg/24 h"},
      {"measurement": "2 Log Kill f24AUC/MBC", "setting": "[1]; SA33591, q 72 h regimen", "result": 94},
      {"measurement": "2 Log Kill f24AUC/MIC", "setting": "[1]; SA33591, q 72 h regimen", "result": 195},
      {"measurement": "2 Log Kill mg/kg/24 h", "setting": "[1]; SA33591, q 72 h regimen", "result": 114, "unit": "mg/kg/24 h"},
      {"measurement": "Static Effect f24AUC/MBC", "setting": "[1]; SA33591, q 72 h regimen", "result": 59},
      {"measurement": "Static Effect f24AUC/MIC", "setting": "[1]; SA33591, q 72 h regimen", "result": 123},
      {"measurement": "Static Effect mg/kg/72 h", "setting": "[1]; SA33591, q 72 h regimen", "result": 74, "unit": "mg/kg/72 h"},
      {"measurement": "1 Log Kill f24AUC/MBC", "setting": "[1]; SA307109, q 72 h regimen", "result": 12.9},
      {"measurement": "1 Log Kill f24AUC/MIC", "setting": "[1]; SA307109, q 72 h regimen", "result": 108},
      {"measurement": "1 Log Kill mg/kg/24 h", "setting": "[1]; SA307109, q 72 h regimen", "result": 34, "unit": "mg/kg/24 h"},
      {"measurement": "2 Log Kill f24AUC/MBC", "setting": "[1]; SA307109, q 72 h regimen", "result": 14.6},
      {"measurement": "2 Log Kill f24AUC/MIC", "setting": "[1]; SA307109, q 72 h regimen", "result": 121},
      {"measurement": "2 Log Kill mg/kg/24 h", "setting": "[1]; SA307109, q 72 h regimen", "result": 37, "unit": "mg/kg/24 h"},
      {"measurement": "Static Effect f24AUC/MBC", "setting": "[1]; SA307109, q 72 h regimen", "result": 11.3},
      {"measurement": "Static Effect f24AUC/MIC", "setting": "[1]; SA307109, q 72 h regimen", "result": 94},
      {"measurement": "Static Effect mg/kg/72 h", "setting": "[1]; SA307109, q 72 h regimen", "result": 31, "unit": "mg/kg/72 h"},
      {"measurement": "1 Log Kill f24AUC/MBC", "setting": "[1]; SA Smith, q 24 h regimen", "result": 119},
      {"measurement": "1 Log Kill f24AUC/MIC", "setting": "[1]; SA Smith, q 24 h regimen", "result": 248},
      {"measurement": "1 Log Kill mg/kg/24 h", "setting": "[1]; SA Smith, q 24 h regimen", "result": 50.7, "unit": "mg/kg/24 h"},
      {"measurement": "2 Log Kill f24AUC/MBC", "setting": "[1]; SA Smith, q 24 h regimen", "result": 173},
      {"measurement": "2 Log Kill f24AUC/MIC", "setting": "[1]; SA Smith, q 24 h regimen", "result": 361},
      {"measurement": "2 Log Kill mg/kg/24 h", "setting": "[1]; SA Smith, q 24 h regimen", "result": 73.5, "unit": "mg/kg/24 h"},
      {"measurement": "Static Effect f24AUC/MBC", "setting": "[1]; SA Smith, q 24 h regimen", "result": 75},
      {"measurement": "Static Effect f24AUC/MIC", "setting": "[1]; SA Smith, q 24 h regimen", "result": 156},
      {"measurement": "Static Effect mg/kg/24 h", "setting": "[1]; SA Smith, q 24 h regimen", "result": 33.5, "unit": "mg/kg/24 h"},
      {"measurement": "1 Log Kill f24AUC/MBC", "setting": "[1]; SA Smith, q 72 h regimen", "result": 78.0},
      {"measurement": "1 Log Kill f24AUC/MIC", "setting": "[1]; SA Smith, q 72 h regimen", "result": 163},
      {"measurement": "1 Log Kill mg/kg/24 h", "setting": "[1]; SA Smith, q 72 h regimen", "result": 95, "unit": "mg/kg/24 h"},
      {"measurement": "2 Log Kill f24AUC/MBC", "setting": "[1]; SA Smith, q 72 h regimen", "result": 22},
      {"measurement": "2 Log Kill f24AUC/MIC", "setting": "[1]; SA Smith, q 72 h regimen", "result": 254},
      {"measurement": "2 Log Kill mg/kg/24 h", "setting": "[1]; SA Smith, q 72 h regimen", "result": 148, "unit": "mg/kg/24 h"},
      {"measurement": "Static Effect f24AUC/MBC", "setting": "[1]; SA Smith, q 72 h regimen", "result": 46.1},
      {"measurement": "Static Effect f24AUC/MIC", "setting": "[1]; SA Smith, q 72 h regimen", "result": 96},
      {"measurement": "Static Effect mg/kg/72 h", "setting": "[1]; SA Smith, q 72 h regimen", "result": 59, "unit": "mg/kg/72 h"},
      {"measurement": "drop in cfu", "setting": "[1]; all strains, 6 day study", "result": "> 4", "unit": "log10"},
      {"measurement": "free drug 24 h AUC/MIC associated with a static effect", "setting": "[1]; every 24 h dosing", "result": "265±143"},
      {"measurement": "free drug 24 h AUC/MIC associated with a static effect", "setting": "[1]; every 72 h dosing", "result": "160±67"},
      {"measurement": "free drug AUC/MIC required for efficacy", "setting": "[1]; over the 6 days", "result": "~1000"},
      {"measurement": "extent of killing", "setting": "[1]; single doses, highest doses studied", "result": "> 2", "unit": "log"},
      {"measurement": "S. aureus eradication rate", "setting": "[2]; FU, single-dose", "result": 50, "unit": "%"},
      {"measurement": "S. aureus eradication rate", "setting": "[2]; FU, two-dose", "result": 90, "unit": "%"},
      {"measurement": "Microbiologic Success Rate", "setting": "[2]; MITT population, EOT, Single-dose (1100 mg)", "result": "5/14 (35.7) %"},
      {"measurement": "Microbiologic Success Rate", "setting": "[2]; MITT population, EOT, Two-dose (1000/500 mg)", "result": "10/13 (76.9) %"},
      {"measurement": "Microbiologic Success Rate", "setting": "[2]; MITT population, FU, Single-dose (1100 mg)", "result": "3/14 (21.4) %"},
      {"measurement": "Microbiologic Success Rate", "setting": "[2]; MITT population, FU, Two-dose (1000/500 mg)", "result": "9/13 (69.2) %"},
      {"measurement": "MRSA eradication rate", "setting": "[2]; MITT population, single-dose", "result": 50, "unit": "%"},
      {"measurement": "MRSA eradication rate", "setting": "[2]; MITT population, two-dose", "result": 80, "unit": "%"},
      {"measurement": "Success Rate by Pathogen", "setting": "[2]; Methicillin-resistant S. aureus, Single-dose (1100 mg)", "result": "3/6 (50%)"},
      {"measurement": "Success Rate by Pathogen", "setting": "[2]; Methicillin-resistant S. aureus, Two-dose (1000/500 mg)", "result": "4/5 (80%)"},
      {"measurement": "Microbiologic Success Rate", "setting": "[2]; Microbiologically evaluable population, EOT, Single-dose (1100 mg)", "result": "5/13 (38.5) %"},
      {"measurement": "Microbiologic Success Rate", "setting": "[2]; Microbiologically evaluable population, EOT, Two-dose (1000/500 mg)", "result": "8/11 (72.7) %"},
      {"measurement": "Microbiologic Success Rate", "setting": "[2]; Microbiologically evaluable population, FU, Single-dose (1100 mg)", "result": "3/11 (27.3) %"},
      {"measurement": "Microbiologic Success Rate", "setting": "[2]; Microbiologically evaluable population, FU, Two-dose (1000/500 mg)", "result": "8/11 (72.7) %"},
      {"measurement": "Success Rate by Pathogen", "setting": "[2]; Total organisms, Two-dose (1000/500 mg)", "result": "14/16 (87.5%)^"},
      {"measurement": "microbiologic success rates", "setting": "[2]; both visits (EOT and FU), single dose", "result": "< 40", "unit": "%"},
      {"measurement": "Microbiologic Success Rate", "setting": "[2]; microbiologically-evaluable population, EOT, single-dose", "result": 38.5, "unit": "%"},
      {"measurement": "Microbiologic Success Rate", "setting": "[2]; microbiologically-evaluable population, EOT, two-dose", "result": 72.7, "unit": "%"},
      {"measurement": "eradication/presumed eradication rate, all organisms", "setting": "[2]; microbiologically-evaluable population, single-dose", "result": 58, "unit": "%"},
      {"measurement": "eradication/presumed eradication rate, all organisms", "setting": "[2]; microbiologically-evaluable population, two-dose", "result": 92, "unit": "%"},
      {"measurement": "Microbiologic Success Rate", "setting": "[2]; microbiologically-evaluable population, FU, single-dose", "result": 27.3, "unit": "%"},
      {"measurement": "Microbiologic Success Rate", "setting": "[2]; microbiologically-evaluable population, FU, two-dose", "result": 72.7, "unit": "%"}
    ]}
  ]
}
